# Assay results: patent US9085536B2, “Aconitine compounds, compositions, uses, and preparation thereof” (priority 2011, dated 2015)
# “Also recorded” adds a separate entry of the source. Where two headings read alike, the source gives them in different places.
# Legend:
# [1] = molecular target: T1, rNaV1.4 expressed in CHO cells (Rattus norvegicus, UniProt P15390); assay: Na+ current block at steady state, whole-cell patch clamp with pulse trains; assay type: cell-based; conditions: for Current measured at 20 μM (%) / Current measured at 75 μM (%): before wash-off; for depolarizing pulses required to reach steady-state block: 10 Hz pulse trains
# T1 construct: expressed in transfected cells; host or cells: CHO cells
# Method: Binding of aconitine to NaV is use-dependent and is known to result both in a left shift of the current-voltage (I-V) relationship and in partial block of the channel. […] To determine whether aconitine binding is reversible, two experiments were designed. First, as block by aconitine is known to be use dependent, peak current was measured as a function of pulse number in the presence of two different concentrations of aconitine. Since aconitine binds preferentially to the open state of the sodium channel, a pulse train was applied sequentially with a control pulse used to record peak current. The pulse train consisted of a series of 50 depolarizing pulses (from −100 mV holding potential to 0 mV, 10 ms duration) applied at 10 Hz frequency, while the control pulse consisted of a single depolarizing pulse (from −100 mV holding potential to 0 mV test potential, 10 ms duration).
# Pulse trains of 10 Hz frequency and control pulses were applied sequentially to cells expressing rNaV1.4, and currents elicited from the control pulse were recorded after each pulse train. This process was repeated until the current elicited from the control pulse had reached a steady state and was no longer decreasing with each additional pulse train. If block were irreversible, this steady state current would be expected to be independent of toxin concentration—the toxin would not be able to dissociate from its receptor, and the number of toxin molecules is much greater than the number of sodium channels (assuming a 100 μL chamber containing 1000 CHO cells, each expressing 10,000 sodium channels, at 50 μM concentration toxin molecules outnumber receptors by a factor of 3×10^8:1), therefore, all receptors would eventually reach the bound state.
# Block by aconitine is known to be use-dependent, therefore the use-dependence of the C14 derivatives of aconitine was evaluated. Peak Na current was measured as a function of pulse number in the presence of different concentrations of the molecules. […] Since aconitine binds preferentially to the open state of the sodium channel, a pulse train was applied sequentially with a control pulse used to record peak current. The pulse train consisted of a series of 50 depolarizing pulses (from −100 mV holding potential to 0 mV, 10 ms duration) applied at 10 Hz frequency, while the control pulse consisted of a single depolarizing pulse (from −100 mV holding potential to 0 mV test potential, 10 ms duration).
# Pulse trains of 10 Hz frequency and control pulses were applied sequentially to CHO cells expressing rNaV1.4, and currents elicited from the control pulse were recorded after each pulse train. This process was repeated until the current elicited from the control pulse had reached a steady state and was no longer decreasing with each additional pulse train. If block were irreversible, this steady state current would be expected to be independent of toxin concentration—the toxin would not be able to dissociate from its receptor, and the number of toxin molecules is much greater than the number of sodium channels, therefore, all receptors would eventually reach the bound state.
# The ability of the synthesized aconitine derivatives to block NaV channels was evaluated with patch-clamp experiments in the whole-cell configuration on CHO cells expressing rNaV1.4 heterologously. A buffer solution containing the toxin was applied to the cells, whole-cell Na^+ currents were recorded until the decreasing current reached a steady-state (300 to 3000 pulses, depending on the molecules and concentrations). The peak Na^+ currents were measured with a depolarizing test pulse (from −100 mV holding potential to 0 mV test potential, 10 ms duration).
# [2] = molecular target: T1, rNaV1.4 expressed in CHO cells; assay type: cell-based; conditions: for reversibility of binding upon wash-off: wash-off experiments, Table 3 concentrations
# Method: […] […] It is noteworthy that little or no increase in current was observed during wash off when no depolarizing pulses were applied and peak current was measured as a function of time.
# Since the molecules bind to the open-state of the Nav channel their release also requires activation pulses. In typical experiments, buffered external solution was perfused and a pulse train sequence was applied to the patch-clamp until the current reached a steady-state for at least two minutes.
# [3] = molecular target: T1, rNaV1.4 expressed in CHO cells; assay: Activation: current-voltage (I-V) and conductance-voltage (G-V) relationship, whole-cell recording; assay type: cell-based
# Method: To determine if the shift in I-V relationship is affected by the aromaticity of the aconitine C14 benzoate, current-voltage relationships were recorded for control cells expressing NaV, those that had been modified by aconitine, and those that had been modified by aconitine C14-cyclohexanoate 4.8d. For the modified channels, solutions of 50 μM concentration of the respective toxins were perfused onto the cells, and then depolarizing pulses were applied until a steady state current was observed, generally requiring about 1000 pulses. At that time, current-voltage relationships were again recorded. […] A shift towards hyperpolarizing potentials is clearly observed in both cases. Currents recorded at −50 mV are highlighted for all three experiments.
# To determine the effect on current-voltage (I-V) relationship of the aconitine derivatives, whole cell currents were recorded in cells expressing NaV in the presence of aconitine derivatives. Control I-V plots were recorded with unmodified NaV1.4, to which were compared NaV channels modified by aconitine as well as by selected analogs. For the modified channels, solutions of the respective toxins were perfused onto the cells, and then depolarizing pulses were applied until a steady state current was observed, generally requiring about 1000 pulses. A sequence of test pulses was then recorded to determine the current-voltage relationships (using a step protocol in which CHO cells were depolarized for 10 ms from a holding potential of −100 mV to a range of potentials from −95 mV to +30 mV in 5 or 10 mV increments; peak currents were normalized to the maximum peak current and plotted against voltage).
# [4] = molecular target: T1, rNaV1.4 expressed in CHO cells; assay: Steady-state inactivation, whole-cell recording, Boltzmann fit; assay type: cell-based
# Method: . The channels were modified by perfusing the cells with buffered solution containing aconitine at the given concentrations and then simple pulses (10 ms pulses to 0 mV from −100 mV holding potential) were recorded until the currents leveled to a steady value (typically ˜1000 pulses). Steady-state fast inactivation of the current was then determined by delivering 500 ms conditioning pulses to potentials ranging from −130 to −11 mV (7 my increments) immediately followed by a 10 ms test pulse to 0 mV to test the available current. The peak current measured during the test pulse was normalized to the maximum peak current recorded in the conditioning pulses. […] Midpoint voltage V0.5 represents the membrane potential at which half maximum current is observed; slope factor at midpoint k quantifies the rate at which the inactivation response occurs.
# NaV1.8 = NaV1.8 (Homo sapiens, UniProt Q9Y5Y9); conditions: cited from earlier work
# NaV1.2 = NaV1.2 (Homo sapiens, UniProt Q99250); conditions: cited from earlier work
# Sequence of NaV1.2 (Q99250 whole entry, looked up): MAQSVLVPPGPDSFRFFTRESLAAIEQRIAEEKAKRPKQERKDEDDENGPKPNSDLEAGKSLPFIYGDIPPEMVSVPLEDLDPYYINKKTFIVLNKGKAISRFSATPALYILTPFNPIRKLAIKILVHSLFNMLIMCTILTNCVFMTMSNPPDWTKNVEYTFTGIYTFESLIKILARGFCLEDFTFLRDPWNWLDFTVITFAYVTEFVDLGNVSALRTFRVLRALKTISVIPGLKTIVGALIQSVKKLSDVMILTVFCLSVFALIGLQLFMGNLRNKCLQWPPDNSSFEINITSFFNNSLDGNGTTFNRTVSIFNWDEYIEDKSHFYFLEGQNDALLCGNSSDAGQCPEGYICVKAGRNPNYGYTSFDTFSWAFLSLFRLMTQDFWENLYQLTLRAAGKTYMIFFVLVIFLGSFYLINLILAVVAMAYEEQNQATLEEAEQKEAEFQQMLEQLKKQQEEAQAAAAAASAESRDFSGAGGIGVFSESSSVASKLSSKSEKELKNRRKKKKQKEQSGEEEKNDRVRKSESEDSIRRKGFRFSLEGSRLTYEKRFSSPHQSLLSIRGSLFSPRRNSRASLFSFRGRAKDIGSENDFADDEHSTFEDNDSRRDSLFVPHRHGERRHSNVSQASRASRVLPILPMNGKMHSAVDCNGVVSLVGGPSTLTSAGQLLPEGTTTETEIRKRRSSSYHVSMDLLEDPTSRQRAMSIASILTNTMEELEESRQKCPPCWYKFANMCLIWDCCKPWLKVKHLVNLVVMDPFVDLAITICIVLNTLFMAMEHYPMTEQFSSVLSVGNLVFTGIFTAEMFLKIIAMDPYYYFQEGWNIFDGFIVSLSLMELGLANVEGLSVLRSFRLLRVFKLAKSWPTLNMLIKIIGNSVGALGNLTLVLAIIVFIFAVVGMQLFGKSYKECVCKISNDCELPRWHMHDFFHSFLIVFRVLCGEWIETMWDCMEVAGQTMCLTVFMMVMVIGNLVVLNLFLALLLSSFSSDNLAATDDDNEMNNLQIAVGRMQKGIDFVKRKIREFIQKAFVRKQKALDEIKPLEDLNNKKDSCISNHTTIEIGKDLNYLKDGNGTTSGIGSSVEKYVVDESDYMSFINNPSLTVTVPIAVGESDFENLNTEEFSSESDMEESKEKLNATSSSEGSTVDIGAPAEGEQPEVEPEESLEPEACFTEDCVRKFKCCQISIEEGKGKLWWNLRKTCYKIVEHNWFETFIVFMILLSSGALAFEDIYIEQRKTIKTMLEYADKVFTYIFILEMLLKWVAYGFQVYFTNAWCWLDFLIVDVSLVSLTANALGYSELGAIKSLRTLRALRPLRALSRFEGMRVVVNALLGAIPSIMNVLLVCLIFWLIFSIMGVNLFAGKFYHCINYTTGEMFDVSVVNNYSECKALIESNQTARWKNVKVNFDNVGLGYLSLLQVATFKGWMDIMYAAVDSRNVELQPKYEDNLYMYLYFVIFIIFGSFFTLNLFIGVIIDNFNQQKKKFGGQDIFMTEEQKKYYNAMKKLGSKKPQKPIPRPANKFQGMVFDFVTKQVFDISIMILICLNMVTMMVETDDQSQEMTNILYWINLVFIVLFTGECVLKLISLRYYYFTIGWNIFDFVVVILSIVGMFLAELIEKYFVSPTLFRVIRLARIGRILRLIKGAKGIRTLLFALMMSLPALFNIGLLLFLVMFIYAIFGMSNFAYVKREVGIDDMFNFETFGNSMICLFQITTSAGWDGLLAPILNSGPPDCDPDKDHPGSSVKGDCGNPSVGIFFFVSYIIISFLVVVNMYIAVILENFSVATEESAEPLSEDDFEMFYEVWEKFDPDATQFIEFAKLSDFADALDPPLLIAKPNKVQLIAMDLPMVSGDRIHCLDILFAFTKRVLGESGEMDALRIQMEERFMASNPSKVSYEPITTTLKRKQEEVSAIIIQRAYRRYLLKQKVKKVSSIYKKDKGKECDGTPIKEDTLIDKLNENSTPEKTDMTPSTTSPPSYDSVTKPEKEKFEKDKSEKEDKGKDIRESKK
# T1 sequence (P15390 whole entry): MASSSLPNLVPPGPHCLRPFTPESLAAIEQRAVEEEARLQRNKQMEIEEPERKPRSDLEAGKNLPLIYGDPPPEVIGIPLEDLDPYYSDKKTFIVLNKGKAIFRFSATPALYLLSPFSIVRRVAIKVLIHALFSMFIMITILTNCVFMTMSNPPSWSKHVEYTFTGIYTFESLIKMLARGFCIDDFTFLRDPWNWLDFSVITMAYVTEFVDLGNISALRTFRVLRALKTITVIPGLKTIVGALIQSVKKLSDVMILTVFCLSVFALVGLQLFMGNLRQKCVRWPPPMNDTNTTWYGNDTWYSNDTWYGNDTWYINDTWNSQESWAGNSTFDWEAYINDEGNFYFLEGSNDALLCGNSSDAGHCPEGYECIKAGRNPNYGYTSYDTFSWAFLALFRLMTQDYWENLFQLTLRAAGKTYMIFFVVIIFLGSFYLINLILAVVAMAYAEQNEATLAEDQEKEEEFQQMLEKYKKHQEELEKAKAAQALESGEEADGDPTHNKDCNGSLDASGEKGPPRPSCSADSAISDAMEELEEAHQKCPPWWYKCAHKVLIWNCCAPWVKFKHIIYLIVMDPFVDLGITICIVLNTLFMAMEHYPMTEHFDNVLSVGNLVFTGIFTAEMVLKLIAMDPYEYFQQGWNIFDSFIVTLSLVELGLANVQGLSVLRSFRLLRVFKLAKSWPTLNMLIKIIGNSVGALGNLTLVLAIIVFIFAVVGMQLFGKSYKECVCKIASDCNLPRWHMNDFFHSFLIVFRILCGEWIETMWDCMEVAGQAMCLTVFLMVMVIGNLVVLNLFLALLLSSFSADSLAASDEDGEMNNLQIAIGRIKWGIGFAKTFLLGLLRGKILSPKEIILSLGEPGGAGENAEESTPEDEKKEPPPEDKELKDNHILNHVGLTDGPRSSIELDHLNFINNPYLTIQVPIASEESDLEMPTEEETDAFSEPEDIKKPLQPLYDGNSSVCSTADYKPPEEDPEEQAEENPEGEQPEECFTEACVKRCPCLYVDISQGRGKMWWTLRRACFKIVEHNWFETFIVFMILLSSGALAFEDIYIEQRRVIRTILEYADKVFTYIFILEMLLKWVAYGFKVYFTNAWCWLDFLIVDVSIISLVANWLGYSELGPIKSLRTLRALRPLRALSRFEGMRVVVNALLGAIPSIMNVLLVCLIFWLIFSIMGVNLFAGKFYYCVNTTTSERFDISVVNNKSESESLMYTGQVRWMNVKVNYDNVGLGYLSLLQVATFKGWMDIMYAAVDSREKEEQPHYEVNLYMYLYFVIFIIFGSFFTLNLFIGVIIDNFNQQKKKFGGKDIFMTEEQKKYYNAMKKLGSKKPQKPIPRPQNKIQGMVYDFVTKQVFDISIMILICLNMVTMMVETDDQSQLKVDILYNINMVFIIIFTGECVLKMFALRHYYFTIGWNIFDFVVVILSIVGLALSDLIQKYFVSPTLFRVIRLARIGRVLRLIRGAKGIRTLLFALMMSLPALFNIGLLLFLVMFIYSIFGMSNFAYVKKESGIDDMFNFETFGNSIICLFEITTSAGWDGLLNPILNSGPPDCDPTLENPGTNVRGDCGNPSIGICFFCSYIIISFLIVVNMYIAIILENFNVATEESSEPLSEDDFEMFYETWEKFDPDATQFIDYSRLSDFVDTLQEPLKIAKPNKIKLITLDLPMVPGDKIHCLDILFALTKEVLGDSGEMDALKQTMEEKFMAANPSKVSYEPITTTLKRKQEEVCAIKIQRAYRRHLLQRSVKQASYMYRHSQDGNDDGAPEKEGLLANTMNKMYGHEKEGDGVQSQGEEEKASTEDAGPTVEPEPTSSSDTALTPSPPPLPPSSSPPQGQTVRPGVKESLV
smiles,measurement,setting,value
CCN1CC2(COC)C3C(OC)C4C1C3(C1C[C@@]3(O)[C@H](OC(=O)c5ccc6ccccc6c5)[C@@H]1[C@]4(OC(C)=O)[C@@H](O)[C@@H]3OC)[C@@H](OC)C[C@H]2O (stereo partly drawn) [4.8c],% Remaining current after reaching steady-state binding,[1]; 5 μM,38%
same,% Remaining current after reaching steady-state binding,[1]; 20 μM,5%
same,peak current blocked at steady state,[1]; 20 μM,around 95%
same,Current measured at 20 μM (%),[1]; 20 μM,3%
same,depolarizing pulses required to reach steady-state block,[1]; 20 μM,800 pulses
same,peak current blocked at steady state,[1]; 73 μM,over 97%
same,Current measured at 75 μM (%),[1]; 73 μM (footnote b),3^b %
same,% Remaining current after reaching steady-state binding,"[1]; 73 μM (footnote c, 75 μM column)",3^c %
same,depolarizing pulses required to reach steady-state block,[1]; 73 μM,≤ 300 pulses
same,% Remaining current after reaching steady-state binding,[1]; 200 μM,3%
same,current observed at steady state,[1]; concentrations of 20 μM and above,≤ 5%
same,Current after wash-off (%),[2]; after wash-off of 20 μM,4%
same,Current after wash-off (%),[2]; after wash-off of 73 μM (footnote b),3^b %
same,reversibility of binding upon wash-off,[2],did not restore substantial current; also recorded: completely irreversible
same,Activation V0.5 (mV),[3]; 5 μM,−23.1 mV
same,Activation hg,[3]; 5 μM,13.1
CCN1CC2(COC)C3C(OC)C4C1C3(C1C[C@@]3(O)[C@H](OC(=O)C5CCCCC5)[C@@H]1[C@]4(OC(C)=O)[C@@H](O)[C@@H]3OC)[C@@H](OC)C[C@H]2O (stereo partly drawn) [4.8d],% Remaining current after reaching steady-state binding,[1]; 5 μM,82%
same,peak current blocked at steady state,[1]; 20 μM,85%
same,depolarizing pulses required to reach steady-state block,[1]; 20 μM,around 600 pulses
same,Current measured at 20 μM (%),[1]; 21 μM (footnote c),15^c %
same,% Remaining current after reaching steady-state binding,[1]; 50 μM,10%
same,peak current blocked at steady state,[1]; 50 μM,90%
same,depolarizing pulses required to reach steady-state block,[1]; 50 μM,Approximately 1000 pulses
same,% Remaining current after reaching steady-state binding,[1]; 200 μM,6%
same,peak current blocked at steady state,[1]; 200 μM,94%
same,depolarizing pulses required to reach steady-state block,[1]; 200 μM,200 pulses
same,Current after wash-off (%),[2]; after wash-off of 20 μM,79%
same,Current after wash-off (%),[2]; after wash-off of 21 μM (footnote c),79^c %
same,shift of voltage of half-activation (V0.5) towards the hypo-polarization,[3],more than 20 mV
same,effect on activation threshold,[3]; 20 μM,did not significantly shift the activation threshold
same,hypopolarized shift of potential of maximum current,[3]; 20 μM,10 mV
same,membrane potential at which maximum current is observed,[3]; 20 μM,0 mV
same,Activation V0.5 (mV),[3]; 21 μM,1.3 mV
same,Activation hg,[3]; 21 μM,15.4
same,current at −50 mV,"[3]; 50 μM, after about 1000 pulses, no current in control cells",substantial currents; also recorded: more pronounced effect in this respect than the natural product
same,effect on threshold for inactivation,[4]; 20 μM,shifted the threshold for inactivation towards higher potentials
same,Steady-state inactivation V0.5 (mV),[4]; 21 μM,−53.1 mV
same,Steady-state inactivation k (slope factor at midpoint),[4]; 21 μM,8.1
same,slope factor k of steady-state inactivation,"[4]; concentration not given, unmodified ˜6",~8
CCN1CC2(COC)C3C(OC)C4C1C3(C1C[C@@]3(O)[C@H](OC(=O)c5ccccc5N=[N+]=[N-])[C@@H]1[C@]4(OC(C)=O)[C@@H](O)[C@@H]3OC)[C@@H](OC)C[C@H]2O (stereo partly drawn) [4.8f],% Remaining current after reaching steady-state binding,[1]; 50 μM,22%
CCN1CC2(COC)C3[C@H](OC)C4C1C3(C1C[C@@]3(O)[C@H](OC(=O)c5cc6ccccc6oc5=O)C1[C@]4(OC(C)=O)[C@@H](O)[C@@H]3OC)[C@@H](OC)C[C@H]2O (stereo partly drawn) [4.8g],concentration required to achieve the current levels observed with 20 μM aconitine,[1],75 µM
same,% Remaining current after reaching steady-state binding,[1]; 20 μM,79%
same,peak current blocked at steady state,[1]; 20 μM,21%
same,Current measured at 20 μM (%),[1]; 20 μM,79%
same,depolarizing pulses required to reach steady-state block,[1]; 20 μM,over 2500 pulses
same,% Remaining current after reaching steady-state binding,[1]; 75 μM,23%
same,peak current blocked at steady state,[1]; 75 μM,77%
same,Current measured at 75 μM (%),[1]; 75 μM,23%
same,depolarizing pulses required to reach steady-state block,[1]; 75 μM,over 3000 pulses
same,Current after wash-off (%),[2]; after wash-off of 20 μM,83%
same,Current after wash-off (%),[2]; after wash-off of 75 μM,31%
same,reversibility of binding upon wash-off,[2],did not restore substantial current
same,Activation V0.5 (mV),[3]; 75 μM,−36 mV
same,Activation hg,[3]; 75 μM,8.9
same,Steady-state inactivation V0.5 (mV),[4]; 75 μM,−75.6 mV
same,Steady-state inactivation k (slope factor at midpoint),[4]; 75 μM,11.6
same,steady-state inactivation V0.5,[4]; concentration not given,−76 mV
same,shift of steady-state inactivation V0.5 compared to the unmodified NaV channel,"[4]; toward hyperpolarized potentials, concentration not given",23 mV
"NC1=N[C@H](O)[C@H]2[C@H]3O[C@]4(O)O[C@@H]([C@@H](O)[C@@]2(N1)[C@@H]4O)[C@]3(O)CO [TTX, tetrodotoxin]",TTX potency,NaV1.8,60 µM
same,TTX potency,NaV1.2,12 nM
